Values joined by “and” are separate entries in the source; they are usually repeats but may differ in a detail not shown here. Identical values can stand only once.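 Exposure lasted 48 hours, with cells grown in 96-well plates and compounds tested at five concentrations. GI50 is the concentration that inhibits growth by half. TGI: concentration producing complete growth inhibition.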
Tests used:
Assay in all cases: growth of human tumour cells (NCI), 48 h
OVCAR-4 ovarian = tested on: OVCAR-4 ovarian
M14 melanoma = tested on: M14 melanoma
NCI-H226 lung = tested on: NCI-H226 lung
T-47D breast = tested on: T-47D breast
RPMI-8226 leukemia = tested on: RPMI-8226 leukemia
NCI-H23 lung = tested on: NCI-H23 lung
CCRF-CEM leukemia = tested on: CCRF-CEM leukemia
PC-3 prostate = tested on: PC-3 prostate
OVCAR-3 ovarian = tested on: OVCAR-3 ovarian
OVCAR-5 ovarian = tested on: OVCAR-5 ovarian

| Structure (SMILES) | TGI (OVCAR-4 ovarian) | TGI (M14 melanoma) | TGI (NCI-H226 lung) | TGI (T-47D breast) | TGI (RPMI-8226 leukemia) | TGI (NCI-H23 lung) | TGI (CCRF-CEM leukemia) | TGI (PC-3 prostate) | TGI (OVCAR-3 ovarian) | TGI (OVCAR-5 ovarian) | GI50 (OVCAR-4 ovarian) | GI50 (M14 melanoma) | GI50 (NCI-H226 lung) | GI50 (T-47D breast) | GI50 (RPMI-8226 leukemia) | GI50 (NCI-H23 lung) | GI50 (CCRF-CEM leukemia) | GI50 (PC-3 prostate) | GI50 (OVCAR-3 ovarian) | GI50 (OVCAR-5 ovarian) |
| --- | --- | --- | --- | --- | --- | --- | --- | --- | --- | --- | --- | --- | --- | --- | --- | --- | --- | --- | --- | --- |
| Cc1cn(C2CC(OC(=O)c3ccc(Cl)cc3)C(COC(=O)c3ccc(Cl)cc3)O2)c(=O)[nH]c1=O (centres undefined) | > 100 µM | > 100 µM | > 100 µM | > 100 µM | > 100 µM | > 100 µM | > 100 µM | > 100 µM | > 100 µM | > 100 µM |  |  |  |  |  |  |  |  |  |  |
| CC1(C)N=C(N)N=C(N)N1c1ccc(CCC(=O)Nc2ccc(S(=O)(=O)F)cc2)c(Cl)c1 | > 100 µM | > 100 µM | > 100 µM | > 100 µM | > 100 µM | > 100 µM | > 100 µM | 49.7 µM | > 100 µM | > 100 µM | 5.51 µM | 0.762 µM | 14.4 µM | 12.4 µM | 0.515 µM | 0.888 µM | 0.522 µM | 0.0926 µM | 9.86 µM | 2.4 µM |
| COc1cc(C2c3cc4c(cc3OC(C)(N3CCCC3)C2C)OCO4)cc(OC)c1OC (centres undefined) | > 100 µM | 4.81 µM | 2.05 µM | > 100 µM | 11.7 µM | 6.32 µM | > 50.3 µM | > 100 µM | 0.528 µM | > 20.5 µM |  |  |  |  |  |  |  |  |  |  |
| Cc1cn(-c2cc(NC(=O)c3cccc(C#Cc4cccc5[nH]nc(N)c45)c3)cc(C(F)(F)F)c2)cn1 | 21.2 µM | 17.4 µM | 61.2 µM | 18.5 µM | > 100 µM | > 100 µM | > 100 µM | 26.7 µM | 83.1 µM | > 100 µM | 2.93 µM | 2.48 µM | 0.771 µM | 3.39 µM | 4.54 µM | 4.61 µM | 4.88 µM | 6.46 µM | 11.1 µM | 3.16 µM |
| Cc1cc(Cl)ccc1OCC(=O)Nc1nc2c(Cl)cccc2s1 | > 100 µM | > 100 µM | > 100 µM | > 100 µM | > 100 µM | > 100 µM | 35.7 µM | > 100 µM | 93.8 µM | > 100 µM | 46.7 µM | > 100 µM | 53.3 µM | > 100 µM | 18.7 µM | 73 µM | 6.94 µM | 8.89 µM | 28.1 µM | 50.4 µM |
| Cc1ccc(C)c(NC(=O)CC2Sc3ccccc3NC2=O)c1 (centres undefined) | 24 µM and 57.7 µM | > 100 µM | 28.6 µM and 67.2 µM | 83.9 µM and > 100 µM | > 100 µM | 38.4 µM and > 96.2 µM | > 100 µM | > 100 µM | 23.7 µM and 58.4 µM | > 100 µM | 14.8 µM and 31.3 µM |  | 15.9 µM and 37.2 µM | 17.4 µM and > 63.1 µM |  | 17.8 µM and 47.3 µM |  |  | 14.6 µM and 30.3 µM | 46.5 µM and > 100 µM |
| O=C(NC(=O)c1c(F)cccc1F)Nc1cccc(Oc2ncc(Cl)cn2)c1 | > 100 µM | > 100 µM | > 100 µM | > 100 µM | > 100 µM | > 100 µM | > 100 µM | > 100 µM | > 100 µM | > 100 µM |  |  |  |  |  |  |  |  |  |  |
| COCCOC(=O)C1=C(O)c2ccccc2S(=O)(=O)N1C | > 100 µM | > 100 µM | > 100 µM | > 100 µM | > 100 µM | > 100 µM | > 100 µM | > 100 µM | > 100 µM | > 100 µM |  |  |  |  |  |  |  |  |  |  |
| N[C@H](C(=O)O)[C@@H]1CC(Cl)=NO1 | > 653 µM | > 1000 µM | > 316 µM | > 1000 µM | 811 µM | > 1000 µM | 700 µM | > 1000 µM | 469 µM | 648 µM |  | 38.9 µM | 39.9 µM and 10.8 µM |  | 11.1 µM | 38.2 µM | 5.76 µM | 11.5 µM | 31.4 µM |  |
| COc1cccc2c1C(=N)c1c(O)c3c(c(O)c1C2=O)C[C@@](O)(C(C)=O)C[C@@H]3O[C@H]1C[C@H](N)[C@H](O)[C@H](C)O1 | 7.68 µM | 4.78 µM | 1.4 µM | 4.17 µM | 4.03 µM | 1.16 µM | 3.76 µM | 9.33 µM | 7.11 µM | 5.68 µM |  | 0.496 µM | 0.167 µM | 0.24 µM | 0.255 µM | 0.233 µM | 0.0829 µM | 1.3 µM | 1.13 µM | 0.512 µM |
| CC(C)(C)c1cc([N+](=O)[O-])cc([N+](=O)[O-])c1O | > 10 µM | > 10 µM | > 10 µM | > 10 µM | > 10 µM | > 10 µM | > 10 µM | > 10 µM | > 10 µM | > 10 µM |  |  |  |  |  |  |  |  |  |  |
| CN(c1ccc(NC(=O)Nc2c(Cl)cccc2Cl)cc1)c1ccnc(Nc2cccc(CS(C)(=O)=O)c2)n1 | 12.5 µM | 11.6 µM | > 20.2 µM | 13.2 µM | > 22.7 µM | 18.5 µM | > 25 µM | 8.6 µM | 5.2 µM | > 19.5 µM | 3.12 µM | 2.64 µM | 4.67 µM | 4.46 µM | 3.68 µM | 2.68 µM | 0.109 µM | 1.56 µM | 1.65 µM | 6.2 µM |
| Cc1cc(N(CC(C)Br)CC(C)Br)ccc1N=Nc1ccccc1C(=O)O (centres undefined) | 5.53 µM | 20.1 µM | 13.3 µM | 5 µM | 7.24 µM | 18.1 µM | > 94.1 µM | 30 µM | 47.2 µM | 10.2 µM |  |  |  |  |  |  |  |  |  |  |
| CCN1C(=O)/C(=C/c2c(Cl)[nH]c3cc(C)c(OC)cc23)c2ccccc21 | > 100 µM | 53.9 µM | > 100 µM | > 100 µM | 24.1 µM | > 100 µM | 5.22 µM | > 100 µM | 8.37 µM | 85.3 µM | 29.8 µM | 4.42 µM | 32.2 µM | 3.76 µM | 2.7 µM | 5.37 µM | 1.76 µM | 3.91 µM | 2.6 µM | 16.5 µM |
| NCCCNCCS | > 100 µM | > 100 µM | > 100 µM | > 100 µM | > 100 µM | > 100 µM | > 100 µM and 72.3 µM | > 100 µM | > 100 µM | > 100 µM |  |  |  |  | > 100 µM and 20.6 µM |  | > 100 µM and 21.8 µM |  |  |  |
